Measurements as given in patent publication US7947275B2 (Signe Biopharma, Inc., priority 2000, dated 2011).
Where “and” joins values, the source holds several entries; their conditions need not be identical. Equal entries are not always repeated. Structures can show the parent of a compound that is named as a salt. Where two headings read alike, the source gives them in different places.

Assays:
LNCaP cells = test: Cell growth assay, LNCaP human prostatic carcinoma cells; assay type: cell-based; settings: for reversal of the inhibition caused by CDE-horse serum: D-MEM/F-12 with CDE-horse serum, 10 nM steroid
Procedure: Specific modifications of the customary cell growth assays were required for assays done under iron-restricted conditions. […] Serum-free components were added to “low-Fe” D-MEM/F-12 at double the concentrations needed (2X) or to “standard” D-MEM/F-12 at (2X) as the experiments dictated. Each assay dish received 1.0 mL of this solution. Next, the cells to be used in the assays were washed three times in either “low-Fe” medium or “standard” medium depending upon the experimental protocol.

[1] = biological target: T1, CA-PS-Pool I (predominantly CBG) (Equus caballus, UniProt F7DRS2); test: Scatchard analysis of labeled steroid binding to CA-PS-pool I; set-up: species or system horse; settings: 3H-labeled steroid, 34° C.; for Kd: read-out: CA-PS-Pool I Kd
T1 sequence (F7DRS2 23-406): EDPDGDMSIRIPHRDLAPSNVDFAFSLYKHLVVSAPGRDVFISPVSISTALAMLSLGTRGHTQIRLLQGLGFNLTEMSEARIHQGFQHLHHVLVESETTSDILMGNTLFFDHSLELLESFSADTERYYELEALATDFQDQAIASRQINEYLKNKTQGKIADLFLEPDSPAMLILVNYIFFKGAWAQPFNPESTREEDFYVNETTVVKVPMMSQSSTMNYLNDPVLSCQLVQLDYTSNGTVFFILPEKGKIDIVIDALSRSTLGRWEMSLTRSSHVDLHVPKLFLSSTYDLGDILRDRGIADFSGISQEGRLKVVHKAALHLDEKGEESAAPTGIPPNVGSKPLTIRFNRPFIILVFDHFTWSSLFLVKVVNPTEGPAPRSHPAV

CA-PS-Pool II = test: Scatchard analysis of labeled steroid binding to CA-PS-pool II; set-up: species or system horse; settings: 3H-labeled steroid, 34° C.
[2] = tested on: CA-PS-Pool II from rat serum; test: Scatchard analysis of labeled steroid binding to the SHBG-like pools from rat serum; settings: 3H-labeled steroid
[3] = tested on: androgen receptors of MTW9/PL2 cells
[4] = read-out: Kd of specific binding of ^3H-DHT, Scatchard analysis
[5] = read-out: Kd of specific binding of ^3H-DHT
human SHBG = human SHBG (Homo sapiens, UniProt P04278); settings: 37° C.; cited from earlier work
H301 cells = test: Cell growth assay, H301 kidney tumor cells; settings: 50% (v/v) CDE-horse serum
Source text: (§1) General Cell Culture—Growth Assay Methods.
(§2) General Cell Culture—Harvest and Counting Cells.
(§3) General Cell Culture—Quantification of Growth.

T47D cells = test: Cell growth assay, T47D human breast cancer cells; settings: for growth effect of steroid hormone, result in words: 50% (v/v) CDE horse serum, 14 days
Source text: as §1, §2, §3

MTW9/PL2 cells = test: Cell growth assay, MTW9/PL2 rat mammary tumor cells; settings: for concentration causing significant (p<0.05) growth / concentration for optimum growth: 50% (v/v) CDE-horse serum
Source text: as §1, §2, §3

GH4C1 cells = test: Cell growth assay, GH4C1 rat pituitary tumor cells; settings: 50% CDE-horse serum
Source text: as §1, §2, §3

PC3 cells = test: Cell growth assay, PC3 human prostate cancer cells; settings: CAPM, 10 μM Fe (III)
Source text: as §1, §2, §3

MCF-7A cells = test: Cell growth assay, MCF-7A human breast cancer cells; settings: DDM-2MF with 10 μg/mL apotransferrin in place of deferoxamine
Source text: as §1, §2, §3

DU145 cells = test: Cell growth assay, DU145 human prostate cancer cells; settings: CAPM, 10 μM Fe (III)
Source text: as §1, §2, §3

ALVA-41 cells = test: Cell growth assay, ALVA-41 human prostate cancer cells; settings: results not shown
[6] = biological target: T2, estrogen receptors of MTW9/PL2 cells (Rattus norvegicus, UniProt P06211); test: ^3H-E2 binding to MTW9/PL2 cells; settings: 5 nM ^3H-E2, 37° C., 100-fold molar excess of unlabeled steroid
T2 construct: endogenous in cells; host or cells: MTW9/PL2 rat mammary tumor cells (whole cells; some values from extracts of the parental MTW9/PL line)

[7] = biological target: progesterone receptors in MTW9/PL2 cells (Rattus norvegicus, UniProt Q63449); test: ^3H-progesterone binding to MTW9/PL2 cells
[8] = tested on: progesterone receptors in MTW9/PL2 cells; test: ^3H-progesterone binding to MTW9/PL2 cells; set-up: species or system rat; settings: 37° C.
[9] = tested on: MCF-7A, MCF-7K, T47D and ZR-75-1 cells; test: Growth factors as substitutes for E2 with human breast cancer cells in CDE-horse serum; assay type: cell-based; settings: EGF, TGFα growth saturating; IGF-I 1.0 μg/mL; IGF-II up to 500 ng/mL; insulin 10 ng/mL to 10 μg/mL
[10] = tested on: MCF-7A, T47D, ZR-75-1, LNCaP and GH4C1 cells; test: TGFβ1 at 50 ng/mL ± E2 with other ER^+ cell lines; assay type: cell-based
MCF-7K cells = test: Cell growth assay, MCF-7K human breast cancer cells
Source text: as §1, §2, §3

T2 sequence (P06211 whole entry): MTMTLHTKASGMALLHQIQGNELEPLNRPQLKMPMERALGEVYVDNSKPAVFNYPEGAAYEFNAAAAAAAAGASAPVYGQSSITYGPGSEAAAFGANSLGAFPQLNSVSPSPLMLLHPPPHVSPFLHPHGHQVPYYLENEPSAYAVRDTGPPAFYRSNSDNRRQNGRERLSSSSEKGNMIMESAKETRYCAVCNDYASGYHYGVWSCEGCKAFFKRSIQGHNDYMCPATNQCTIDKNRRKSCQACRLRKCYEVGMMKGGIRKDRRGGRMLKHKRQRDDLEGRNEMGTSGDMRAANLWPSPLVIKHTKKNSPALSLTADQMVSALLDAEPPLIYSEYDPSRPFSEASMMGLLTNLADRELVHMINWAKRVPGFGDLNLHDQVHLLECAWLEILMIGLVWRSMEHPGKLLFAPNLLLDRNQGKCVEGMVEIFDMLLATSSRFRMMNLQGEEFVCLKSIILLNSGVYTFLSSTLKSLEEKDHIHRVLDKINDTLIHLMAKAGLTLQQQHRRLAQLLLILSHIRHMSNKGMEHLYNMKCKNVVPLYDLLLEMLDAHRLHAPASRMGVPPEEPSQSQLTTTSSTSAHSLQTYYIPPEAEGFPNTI
Chain of progesterone receptors in MTW9/PL2 cells (Rattus norvegicus, UniProt Q63449) (Q63449 669-923 limits assumed): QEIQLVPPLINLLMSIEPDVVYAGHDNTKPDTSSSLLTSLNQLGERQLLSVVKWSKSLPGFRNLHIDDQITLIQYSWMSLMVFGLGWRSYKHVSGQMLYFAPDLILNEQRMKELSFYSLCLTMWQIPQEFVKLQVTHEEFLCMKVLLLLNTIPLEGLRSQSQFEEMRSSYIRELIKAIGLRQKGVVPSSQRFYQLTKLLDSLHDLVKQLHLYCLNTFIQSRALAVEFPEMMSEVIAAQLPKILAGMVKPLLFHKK
Chain of human SHBG (P04278 30-402): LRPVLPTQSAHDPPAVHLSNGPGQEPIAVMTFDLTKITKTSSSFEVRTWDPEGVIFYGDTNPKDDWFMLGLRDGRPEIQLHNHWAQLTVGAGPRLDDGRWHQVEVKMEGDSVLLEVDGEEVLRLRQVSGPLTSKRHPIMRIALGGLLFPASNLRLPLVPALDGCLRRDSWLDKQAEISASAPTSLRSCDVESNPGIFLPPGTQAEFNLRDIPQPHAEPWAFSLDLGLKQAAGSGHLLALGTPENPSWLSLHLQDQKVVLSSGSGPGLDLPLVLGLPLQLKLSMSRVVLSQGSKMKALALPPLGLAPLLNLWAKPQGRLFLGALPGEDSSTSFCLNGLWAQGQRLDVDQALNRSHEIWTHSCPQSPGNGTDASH

CC/C(=C(/CC)c1ccc(O)cc1)c1ccc(O)cc1 [DES, Diethylstilbestrol]
reversal of the inhibition caused by CDE-horse serum (LNCaP cells): entirely ineffective

C[C@]12CCC(=O)C[C@@H]1CC[C@@H]1[C@@H]2CC[C@]2(C)[C@@H](O)CC[C@@H]12 [DHT, Dihydrotestosterone]
concentration causing significant (p<0.05) growth (LNCaP cells; D-MEM/F-12 with 50% (v/v) CDE horse serum): 1 pM | reversal of the inhibition caused by CDE-horse serum (LNCaP cells): effectively reversed the inhibition | androgenic effect (difference between presence and absence of DHT) (LNCaP cells; serum-free CAPM ± 10 nM DHT): less than one | CA-PS-Pool I Ka [1]: 164000 M⁻¹ | Kd [1]: 6050 nM | CA-PS-Pool II Ka (CA-PS-Pool II): 6.99e+07 M⁻¹ | Kd (CA-PS-Pool II): 14.3 nM | CA-PS-Pool II Ka (CA-PS-Pool II; listed as 3H-DHT): 5.88e+07 M⁻¹ | CA-PS-Pool II Ka [2]: 4.1e+07 M⁻¹ | Kd [2]: 24 nM | specific saturable binding sites for androgens [3]: did not reveal saturable specific binding sites | Kd [4]: 1 to 5 nM | Kd [5]: 15 to 40 nM | Ka of purified human SHBG (human SHBG): 9.9e+08 M⁻¹ | growth effect of steroid hormone, result in words (H301 cells): inactive | growth effect of steroid hormone, result in words (T47D cells): promoted growth but only at supraphysiological concentrations | concentration causing significant (p<0.05) growth (MTW9/PL2 cells): ≥ 10 nM

C[C@]12CC[C@@H]3c4ccc(O)cc4CC[C@H]3[C@@H]1CCC2=O [E1, Estrone]
concentration required to achieve significant (p<0.05) growth (H301 cells): 100 pM | concentration required for optimum growth (GH4C1 cells): 10 nM | lowest concentration that gave significant (p<0.05) growth (GH4C1 cells): 1 pM | concentration for optimum growth (MTW9/PL2 cells): 1 nM

C[C@]12CC[C@@H]3c4ccc(O)cc4CC[C@H]3[C@@H]1C[C@@H](O)[C@@H]2O [E3, Estriol]
growth effect of steroid hormone, result in words (GH4C1 cells): substantially less effective | concentration for optimum growth (MTW9/PL2 cells): 10 nM

[Fe+3] [Fe (III)]
IC50 (LNCaP cells; CAPM with apotransferrin (500 nM) substituted for deferoxamine, 12-day assay, read-out: EI50 (the source's name)): 5000 nM | concentration arresting growth to seed density levels (LNCaP cells; CAPM with apotransferrin (500 nM) substituted for deferoxamine, 12-day assay, second experiment in CAPM): 10 µM and 8 to 10 µM | concentration giving complete inhibition (T47D cells; DDM-2MF with 10 μg/mL apotransferrin instead of deferoxamine, 10 days, ± E2): 2 µM | IC50 (T47D cells; read-out: EI50, DDM-2MF with 10 μg/mL apotransferrin instead of deferoxamine, 10 days): 1000 nM | reduction in cell number (PC3 cells): 10% | concentration completely inhibitory (MCF-7A cells; ± E2, 10 days): 10 µM | IC50 (MCF-7A cells; read-out: EI50, 10 days): 5000 to 7000 nM | reduction in cell number (DU145 cells): 30% | iron sensitivity of growth (ALVA-41 cells): not iron sensitive

C[C@]12CC[C@H]3[C@@H](CCC4=CC(=O)CC[C@@]43C)[C@@H]1CC[C@@H]2O [T, Testosterone]
reduction of ^3H-E2 total binding by unlabeled steroid [6]: did not displace ^3H-E2 total binding significantly | growth effect of steroid hormone, result in words (H301 cells): inactive | growth effect of steroid hormone, result in words (T47D cells): promoted growth but only at supraphysiological concentrations | growth effect of steroid hormone, result in words (GH4C1 cells): ineffective

CC(=O)N(O)CCCCCNC(=O)CCC(=O)N(O)CCCCCNC(=O)CCC(=O)N(O)CCCCCN [deferoxamine, deferoxamine mesylate]
growth induced by chelator (LNCaP cells; CAPM without deferoxamine plus […] Fe (III), 0.5 μM chelator): 3.5 CPD

CC(=O)[C@H]1CC[C@H]2[C@@H]3CCC4=CC(=O)CC[C@]4(C)[C@H]3CC[C@]12C [progesterone, Progesterone]
Kd [7]: 3.29 nM | ^3H-progesterone concentration at one-half saturation [8]: 0.5 to 1 nM | labeled progesterone concentration saturating specific binding [8]: ≥ 5 nM | Kd ([8]; read-out: Kd of ^3H-progesterone binding, Scatchard analysis, whole cells): 1.02 nM | CA-PS-Pool I Ka [1]: 5.9e+08 M⁻¹ | Kd [1]: 1.7 nM | CA-PS-Pool II Ka (CA-PS-Pool II): 117000 M⁻¹ | Kd (CA-PS-Pool II): 7890 nM | CA-PS-Pool II Ka [2]: 140000 M⁻¹ | Kd [2]: 6900 nM | growth effect of steroid hormone, result in words (H301 cells): inactive | growth effect of steroid hormone, result in words (T47D cells): completely ineffective | growth effect of steroid hormone, result in words (GH4C1 cells): had no effect on GH4C1 growth | concentration causing significant (p<0.05) growth (MTW9/PL2 cells): ≥ 100 nM

CC/C(=C(\c1ccccc1)c1ccc(OCCN(C)C)cc1)c1ccccc1 [tamoxifen, Tamoxifen Citrate]
estrogen reversal of the tamoxifen inhibition (T47D cells; 1.0×10^−7 M tamoxifen, serum-free defined medium): estrogens completely reverse the effect | cytotoxicity (T47D cells; concentrations above 1.0×10^−7 M, serum-free DDM-2MF): Higher concentrations were cytotoxic | concentration that completely inhibited (arrested) growth (T47D cells; serum-free DDM-2MF without any source of estrogens): 100 nM

EGF: epidermal growth factor from mouse submaxillary gland (NSYPGCPSSYDGYCLNGGVCMHIESLDSYTCNCVIGYSGDRCQTRDLRWWELR; not fully specified; Epidermal growth factor; UniProt P01132 977-1029, looked up)
reversal of the CDE-serum inhibition (substitute for E2) [9]: did not reverse the effects of the serum-borne inhibitor

IGF-I: insulin-like growth factor I
reversal of the CDE-serum inhibition (substitute for E2) [9]: did not reverse the serum inhibition

IGF-II: insulin-like growth factor II
reversal of the CDE-serum inhibition (substitute for E2) [9]: did not reverse the inhibitory effects of 10 to 50% (v/v) CDE serum

TGFα: transforming growth factor α, EGF analogue
reversal of the CDE-serum inhibition (substitute for E2) [9]: did not reverse the effects of the serum-borne inhibitor

TGFβ1: transforming growth factor β1
substitution for the estrogen reversible inhibitor [10]: did not substitute for the estrogen reversible inhibitor(s) in CDE serum | cell numbers per dish with TGFβ1 (350,000 without) (MTW9/PL2 cells; D-MEM/F-12 with […] (v/v) CDE-horse serum): 100,000 per dish | decrease in growth rate (MTW9/PL2 cells; […] (v/v) CDE-horse serum): ≤ 25% | inhibition of growth (MTW9/PL2 cells; […] (v/v) CDE-horse serum): 1.5 CPD | estrogen reversal of the inhibition (MTW9/PL2 cells; […] (v/v) CDE-horse serum ± E2): no estrogen reversal of the TGFβ1 inhibition | estrogen reversal of the inhibition (MCF-7K cells; […] (v/v) CDE-horse serum ± E2): no TGFβ1 related estrogenic effect | cell numbers per dish with TGFβ1 (350,000 without) (MCF-7K cells; […] (v/v) CDE-horse serum, 50 ng/mL): 200,000 per dish

insulin: bovine insulin
reversal of the CDE-serum inhibition (substitute for E2) [9]: did not reverse the inhibition caused by 50% (v/v) CDE serum
